Results as given in patent US20230073946A1, “AFFINITY PEPTIDE […] A[…] PROTECTION OF PROTEINS FROM OXIDATION” (ARIZONA BOARD OF REGENTS ON BEHALF OF THE UNIVERSITY OF …, priority 2020, published 2023).
“Also recorded” adds a separate entry of the source.

Legend:
[1] = tested on: LDH; details: SU2 rats, NP treatment, lung tissue
Experimental: Female Sprague Dawley rats (200-250 g) obtained from Charles River (Wilmington, Mass., USA) were used in this study. […] Generally, PAH was induced by a single injection of SU5416 (50 mg/kg) subcutaneously, followed by 3 weeks of hypoxia (10% 02) and 2 weeks of normoxia. This study included five animal groups: control group; SU1, rats were analyzed after 1 week of SU5416 and hypoxia treatment; SU2, rats were analyzed after 2 weeks of SU5416 and hypoxia treatment; SUS, rats were analyzed after 5 weeks of SU5416 treatment (3 weeks of hypoxia with a following 2 weeks of normoxia); and SU2+NP peptide treatment 0.1 mg/kg/day intravenous (i.v.) injection started with SU5416 treatment for two-weeks.
LDH activity in lung tissue was assessed by Lactate Dehydrogenase Activity Colorimetric Assay Kit (K726, BioVision Inc. Calif., USA) according to manufacturer's instruction. All values were normalized with respect to protein concentrations as determined by the Pierce™ BCA Protein Assay Kit (Thermo Scientific, Rockford, Ill.).

[2] = tested on: HPASMCs; assay: Seahorse mitostress assay (OCR); format: cell-based, human; details: SIN-1 treatment
Experimental: (§1) For the glycostress Seahorse assay, human pulmonary artery smooth muscle cells (HPASMCs) were seeded in a 24 well Seahorse cell culture microplate at 50000/well and kept overnight to form a monolayer. On the day of experiment, the media was aspirated and cells were incubated at 37° C. in a non-CO2 incubator for 1 hour with 0.5 mL XF base medium (cat #102353-100, Agilent, Santa Clara, Calif.) supplemented with 2 mM glutamine. Glucose (56 μL, 100 mM), Oligomycin (62 μL, 100 μM) and 2-deoxyglucose (69 μL, 500 mM) was added to the flux pack wells (cat #102342-100, Agilent, Santa Clara, Calif.). ECAR (extracellular acidification rate) was then measured using Seahorse Bioscience XFe24 extracellular flux analyzer (Agilent, Santa Clara, Calif.) according to the manufacturer's protocol. For the mitostress assay, cells were prepared like the glycostress assay with the exception that the XF base incubation media was supplemented with pyruvate (1 mM), glutamine (2 mM) and glucose (10 mM). Oligomycin (56 μL, 10 μM), FCCP (62 μL, 10 μM) and Rotenone+Antimycin-A (69 μL, 5 μM) were added to the flux pack wells. OCR (oxygen consumption rate) was then identified according to the manufacturer's protocol. Data was normalized to cell number as determined by flow cytometry. All the chemicals used for these experiments, unless specified, were procured from Sigma-Aldrich.

[3] = tested on: HPASMCs; assay: Seahorse glycostress assay (ECAR); format: cell-based, human; details: SIN-1 treatment
Experimental: as §1

[4] = target: T1, Akt (Rattus norvegicus, UniProt P47196); assay: Western blot of Akt nitration, phosphorylation and total nitration in lung lysate, sugen/hypoxia PAH model; format: in vivo; details: sugen/hypoxia rats two-weeks (SU2), NP 0.1 mg/kg/day i.v.
T1 construct: nitro Akt, phospho Akt and total Akt expression in the lung lysate; from tissue; host or cells: rat lung (Sprague Dawley, sugen/hypoxia model)
T1 sequence (P47196 whole entry): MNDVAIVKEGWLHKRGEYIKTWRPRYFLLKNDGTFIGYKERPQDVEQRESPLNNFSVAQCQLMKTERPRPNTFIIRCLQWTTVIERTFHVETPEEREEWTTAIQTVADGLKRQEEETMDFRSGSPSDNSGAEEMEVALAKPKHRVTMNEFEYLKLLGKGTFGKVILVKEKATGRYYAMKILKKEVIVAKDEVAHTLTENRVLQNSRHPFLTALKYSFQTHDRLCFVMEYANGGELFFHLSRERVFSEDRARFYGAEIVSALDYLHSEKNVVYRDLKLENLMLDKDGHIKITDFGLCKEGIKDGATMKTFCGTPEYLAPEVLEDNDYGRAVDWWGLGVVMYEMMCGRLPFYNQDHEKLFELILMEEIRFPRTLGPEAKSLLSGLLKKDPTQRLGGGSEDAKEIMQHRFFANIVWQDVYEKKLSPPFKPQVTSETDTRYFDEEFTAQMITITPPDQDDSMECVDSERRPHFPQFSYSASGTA
Experimental: (§2) For an analysis of the total lung protein, lung tissues were lysed as previously described. Briefly, 20-40 mg of lung tissue (human/rat) was lysed in Permeabilization Buffer mixed with protease and phosphatase inhibitor cocktails using a Fisher Homogenizer 850. The homogenate was centrifuged at 10,000 g for 10 min, and the supernatant was carefully collected. Cell membrane and cytosolic fractions were isolated using FractionPREP™ cell fraction kit (Biovision, Milpitas, Calif.) according to manufacturer's instruction. The protein concentration was measured using the BCA protein assay kit (Thermo Scientific, Rockford, Ill.). Samples were incubated with 6×Laemmli sample buffer (Boston Bioproducts Inc., Ashland, Mass.), for 5 min at 95° C., loaded on the 4-20% SDS-PAGE Mini-PROTEAN TGX Stain-Free™ gels (Bio-Rad Laboratories Inc., Hercules, Calif.) and separated by electrophoresis. Protein bands were transferred using Trans-Blot Turbo transferring system (Bio-Rad Laboratories Inc.) and then blocked with 5% bovine serum albumin in Tris-buffered saline. Membranes were probed using antibodies against Glut 4 (07-1404) from Millipore, pyruvate carboxylase (PC) (Ab229267) & peroxisome proliferator-activated receptor gamma coactivator 1-alpha (PGC-1α) (Ab191838) from Abcam, pyruvate dehydrogenase (PDH) (45-6600) from Invitrogen, phospho Akt (Ser 473) (4060S), Akt (9272S), hexokinase 1 (HK1) (C35C4), glyceraldehyde-3 phosphate dehydrogenase (GAPDH) (2118S), lactate dehydrogenase-A (LDHA) (2012S), phospho glycogen synthase kinase (GSK) 3 β (Ser9) (9336S), GSK3 β(9315S) and glucose 6-phosphate dehydrogenase (G6PD) (8866S) from Cell Signaling Technology. Mouse monoclonal anti-nitrotyrosine antibodies were obtained from Calbiochem, La Jolla, Calif. (487923). Akt Y350 NO2 antibody obtained as a custom-made antibody against Akt1-nitro (341-353) and the sequence was CGRLPF-nitroY-NQDHEK (SEQ ID NO: 2). Two peptides were developed with and without Y350 nitration. The antibody developed against nitrated peptide cleaned using non-nitrated peptide (Akt1 (341-353): […], SEQ ID NO: 3) to remove nonspecific antibodies. […] Since the quantification of the Akt nitration is not fully established by mass spectrometry, a common method was used by newly developed antibodies for the quantification of specific Y350 nitration of Akt. The reactive bands were visualized by chemiluminescent ChemiDoc™ MP Imaging System (Bio-Rad Laboratories Inc., Hercules, Calif.) and analyzed using Image Lab™ software. […] This normalization is equal to housekeeping genes normalization and rigorously evaluated by Bio-Rad company (http://www.bio-rad.com/en-us/applications-technologies/stain-free-imaging-technology?ID=NZ0G1815) and others in comparison with beta-actin normalization.

[5] = tested on: Akt; assay: as above; format: in vivo, rat; details: SU2 rats, NP 0.1 mg/kg/day i.v. two-weeks
Experimental: as §2

[6] = tested on: sugen/hypoxia PAH model; assay: Western blot of metabolic proteins in lung tissue, sugen/hypoxia PAH model; format: in vivo, rat; details: SU2 rats
Experimental: For an analysis of the total lung protein, lung tissues were lysed as previously described. Briefly, 20-40 mg of lung tissue (human/rat) was lysed in Permeabilization Buffer mixed with protease and phosphatase inhibitor cocktails using a Fisher Homogenizer 850. The homogenate was centrifuged at 10,000 g for 10 min, and the supernatant was carefully collected. Cell membrane and cytosolic fractions were isolated using FractionPREP™ cell fraction kit (Biovision, Milpitas, Calif.) according to manufacturer's instruction. The protein concentration was measured using the BCA protein assay kit (Thermo Scientific, Rockford, Ill.). Samples were incubated with 6×Laemmli sample buffer (Boston Bioproducts Inc., Ashland, Mass.), for 5 min at 95° C., loaded on the 4-20% SDS-PAGE Mini-PROTEAN TGX Stain-Free™ gels (Bio-Rad Laboratories Inc., Hercules, Calif.) and separated by electrophoresis. Protein bands were transferred using Trans-Blot Turbo transferring system (Bio-Rad Laboratories Inc.) and then blocked with 5% bovine serum albumin in Tris-buffered saline. Membranes were probed using antibodies against Glut 4 (07-1404) from Millipore, pyruvate carboxylase (PC) (Ab229267) & peroxisome proliferator-activated receptor gamma coactivator 1-alpha (PGC-1α) (Ab191838) from Abcam, pyruvate dehydrogenase (PDH) (45-6600) from Invitrogen, phospho Akt (Ser 473) (4060S), Akt (9272S), hexokinase 1 (HK1) (C35C4), glyceraldehyde-3 phosphate dehydrogenase (GAPDH) (2118S), lactate dehydrogenase-A (LDHA) (2012S), phospho glycogen synthase kinase (GSK) 3 β (Ser9) (9336S), GSK3 β(9315S) and glucose 6-phosphate dehydrogenase (G6PD) (8866S) from Cell Signaling Technology. Mouse monoclonal anti-nitrotyrosine antibodies were obtained from Calbiochem, La Jolla, Calif. (487923). Akt Y350 NO2 antibody obtained as a custom-made antibody against Akt1-nitro (341-353) and the sequence was CGRLPF-nitroY-NQDHEK (SEQ ID NO: 2). Two peptides were developed with and without Y350 nitration. The antibody developed against nitrated peptide cleaned using non-nitrated peptide (Akt1 (341-353): […], SEQ ID NO: 3) to remove nonspecific antibodies. Affinity purification was done using large reusable affinity purification columns against the unmodified and nitrated peptides. […] Since the quantification of the Akt nitration is not fully established by mass spectrometry, a common method was used by newly developed antibodies for the quantification of specific Y350 nitration of Akt. The reactive bands were visualized by chemiluminescent ChemiDoc™ MP Imaging System (Bio-Rad Laboratories Inc., Hercules, Calif.) and analyzed using Image Lab™ software. The protein loading was normalized per total sample protein as fold control using stain free gels as previously described. This normalization is equal to housekeeping genes normalization and rigorously evaluated by Bio-Rad company (http://www.bio-rad.com/en-us/applications-technologies/stain-free-imaging-technology?ID=NZ0G1815) and others in comparison with beta-actin normalization.

[7] = tested on: PDH; assay: Pyruvate dehydrogenase assay in lung tissue; format: in vivo, rat; details: SU2 rats, NP treatment
Experimental: Lung tissue was lysed using RIPA buffer and the lysate was used for the PDH activity. PDH activity was measured with PDH Activity Assay Kit (MAK183, Sigma-Aldrich) per the manufacturer protocol.

[8] = tested on: sugen/hypoxia PAH model; assay: Histological analysis of pulmonary arteries (EVG, Ki-67), sugen/hypoxia PAH model; format: in vivo, rat; details: SU2 rats, NP 0.1 mg/kg/day i.v. two-weeks
Description: For the morphometric assessment of pulmonary vessels 5-μm tissue sections were dewaxed and stained with elastic fibers—Verhoeffs van gieson (EVG) by HistoWiz Inc. (Brooklyn, N.Y.) using standard operating procedures and a fully automated workflow system. Ten transversely sectioned pulmonary arteries (diameter<300 μm) within each category per each animal (N=6 per group) were randomly selected from the whole-slide 40X digitized image Aperio AT2 scanner (Leica Biosystems, Ill.). Immunohistochemistry was performed using standard protocols. The sections were deparaffinized and incubated with primary antibodies against Akt Y350 NO2 (1:100), and Ki67 (1:800) (ab15580 Abcam); Dab Rabbit H1 (pH 6) for 20 min. The morphometric analysis was done by an investigator by a blinded grouping fashion. The wall thickness of the pulmonary artery (PA) was measured using the publicly available software Fiji is just ImageJ (http://fiji.sc/Fiji; in the public domain).

[9] = target: T2, Akt (Y350 nitration) (Homo sapiens, UniProt P31749); assay: Sin-1 induced Akt nitration assay in HPAECs; format: cell-based; details: 1 μM NP pretreatment 30 min, washed, then SIN-1 1 mM 1 hour
T2 construct: endogenous in cells; host or cells: HPAEC (human pulmonary artery endothelial cells)
T2 sequence (P31749 whole entry): as the sequence (P47196 whole entry) above, with N2S, E46D, S50A, R112K, T117E, A137S, T389K, N410G, D415H counted along it
Experimental: Human pulmonary artery endothelial cells (HPAECs) were cultured using an endothelium media specific for HPAEC with 10% FBS. Cells were used from passages 3-6. All experiments were performed on 80-90% confluent cells. Akt nitration was induced by treatment with 3-Morpholinosyndnomine (SIN-1) (1 mM) for 1 hour. NP pretreatment groups were treated with 1 μM NP for 30 min, and then cells were washed in PBS and treated with SIN-1 for 1 hour. All treatments were accompanied by including controls with the corresponding vehicle. After treatment, the cells were washed in PBS and lysed in a RIPA buffer containing protease and phosphatase inhibitor cocktail.
For an analysis of the total lung protein, lung tissues were lysed as previously described. Briefly, 20-40 mg of lung tissue (human/rat) was lysed in Permeabilization Buffer mixed with protease and phosphatase inhibitor cocktails using a Fisher Homogenizer 850. […] The protein concentration was measured using the BCA protein assay kit (Thermo Scientific, Rockford, Ill.). […] Since the quantification of the Akt nitration is not fully established by mass spectrometry, a common method was used by newly developed antibodies for the quantification of specific Y350 nitration of Akt. The reactive bands were visualized by chemiluminescent ChemiDoc™ MP Imaging System (Bio-Rad Laboratories Inc., Hercules, Calif.) and analyzed using Image Lab™ software. […]

[10] = tested on: sugen/hypoxia PAH model; assay: Metabolic intermediates analysis of lung lysate (PCA); format: in vivo, rat; details: SU2+NP versus SU2
Experimental: Data were acquired using the West Coast Metabolomics Center at UC Davis. Briefly, Restek corporation Rtx-5Sil MS column was used with helium mobile phase at temperature interval (50-330° C.) and flow-rate: 1 mL min-1. Injection volume was 0.5 μL at 50° C. ramped to 250° C. by 12° C. s-1. Oven temperature started at 50° C. for 1 min, then ramped at 20° C. min-1 to 330° C., and held constant for 5 min. Mass spectrometry analysis was done on a Leco Pegasus IV mass spectrometer with unit mass resolution at 17 spectra s-1 from 80-500 Da at −70 eV ionization energy and 1800 V detector voltage with a 230° C. transfer line and a 250° C. ion source. Raw data files were preprocessed directly after data acquisition and stored as ChromaTOF-specific*.peg files, as generic*.txt result files and additionally as generic ANDI MS*.cdf files. ChromaTOF vs. 2.32 was used for data preprocessing without smoothing, 3s peak width, baseline subtraction just above the noise level, and automatic mass spectral deconvolution and peak detection at signal/noise levels of 5:1 throughout the chromatogram. Apex masses were reported for use in the BinBase algorithm. Result*.txt files were exported to a data server with absolute spectra intensities and further processed by a filtering algorithm implemented in the metabolomics BinBase database.

[11] = tested on: sugen/hypoxia PAH model; assay: Hemodynamic measurement (RVSP, Fulton index), sugen/hypoxia PAH model; format: in vivo, rat; details: SU2 rats, NP 0.1 mg/kg/day i.v. two-weeks
Experimental: Animals were anesthetized with inactin 100 mg/kg intraperitoneally (i.p.) (T133, Sigma-Aldrich). A customized pressure transducer catheter (SPR-513, Millar Instruments, Houston, Tex.) was inserted into RV via the right jugular vein and advanced into the right ventricle to monitor right ventricular systolic pressure (RVSP) as described previously. Briefly, the pressure transducer catheter was connected to a Millar Transducer Control Unit TC-510 and PL3504 PowerLab 4/35 data acquisition system (AD Instruments, Colorado Springs, Colo.) to monitor RV pressure for 30-min. After this a tracheal catheter was connected to a ventilator system (Harvard Rodent Ventilator-683; Harvard Apparatus, South Natick, Mass.), the thorax was opened, and the lungs flushed with 0.9% sodium chloride through the right ventricle (RV). Heart and lungs were collected from animals; the RV free wall was separated from the left ventricle (LV), and the septum (5). Fulton index (RV/LV+S ratio) as a parameter of RV hypertrophy was calculated. The total wet lung weight was measured and normalized by the body weight of the animal. The left lung was fixed in formalin and embedded in paraffin for histological examination. The other portion of the lung was stored at −80° C. for further biochemical studies.

**Q.** Which results are given for “NP: peptide Ser-Arg-IIe-Arg-Ser (SEQ ID NO: 1) with nitroxide (3-Carboxy-2,2,5,5-tetramethyl pyrroline-1-yloxy) covalently attached to the free N-terminal amine”?
**A.** LDHA activity [1]: attenuating; basal respiration rate [2]: without affecting; mitochondrial oxidative phosphorylation rate (OCR) [2]: upregulated the oxidative phosphorylation rate to control level; Glycolytic capacity [3]: attenuated; glycolysis (glycolytic rate, ECAR) [3]: attenuated this back to control level; nitroAkt modification in the lung tissue [4]: significantly reduced; also recorded: remarkable reduction; Phosphorylation of Akt at Ser-473 ([5]; lung lysate): does not affect; total Akt expression ([5]; lung lysate): did not change; total nitration in lungs ([5]; selectivity toward Akt nitration): did not significantly alter; pyruvate carboxylase (PC) expression ([6]; NP 0.1 mg/kg/day i.v. two-weeks): decreased; G6PD expression ([6]; NP treatment): upregulated significantly; GSK3β expression ([6]; NP treatment): reversed; Glut4 translocation to membrane (membrane/cytosol ratio) ([6]; NP treatment): attenuated; LDHA expression ([6]; NP treatment): attenuating; PDH expression ([6]; NP treatment): significantly increased; PGC1α expression ([6]; NP treatment): significantly reduced; PDH activity [7]: increased; EVG staining: perivascular fibrosis, vasoconstriction and proliferation in pulmonary arteries [8]: significantly attenuated; vascular remodeling and cellular proliferation (Ki-67 staining) [8]: effectively prevented; reduction of Akt nitration (Y350) [9]: 55%; metabolites significantly restored by treatment [10]: 30 metabolites; Fulton index (RV/LV+S), RV hypertrophy [11]: markedly decreased; also recorded: reversed; right ventricular systolic pressure (RVSP) ([11]; SU2 without NP 71.9±3.6, p<0.001): 36.1±2.6
